Experimental data reported in ChEMBL document CHEMBL5385866, “Switch type I to type II TRK inhibitors for combating clinical resistance induced by xDFG mutation for cancer therapy” (Eur J Med Chem, 2023).

How the values were obtained:
[1] = target: BDNF/NT-3 growth factors receptor (Homo sapiens, UniProt Q16620); assay: Inhibition of TRKB (unknown origin) using […] peptide as substrate incubated for 1 hr in presence of ATP by FRET based Z'-lyte assay
[2] = target: NT-3 growth factor receptor (Homo sapiens, UniProt Q16288); assay: Inhibition of TRKC (unknown origin) using […] peptide as substrate incubated for 1 hr in presence of ATP by FRET based Z'-lyte assay
NT-3 growth factor receptor, sequence (Q16288 whole entry): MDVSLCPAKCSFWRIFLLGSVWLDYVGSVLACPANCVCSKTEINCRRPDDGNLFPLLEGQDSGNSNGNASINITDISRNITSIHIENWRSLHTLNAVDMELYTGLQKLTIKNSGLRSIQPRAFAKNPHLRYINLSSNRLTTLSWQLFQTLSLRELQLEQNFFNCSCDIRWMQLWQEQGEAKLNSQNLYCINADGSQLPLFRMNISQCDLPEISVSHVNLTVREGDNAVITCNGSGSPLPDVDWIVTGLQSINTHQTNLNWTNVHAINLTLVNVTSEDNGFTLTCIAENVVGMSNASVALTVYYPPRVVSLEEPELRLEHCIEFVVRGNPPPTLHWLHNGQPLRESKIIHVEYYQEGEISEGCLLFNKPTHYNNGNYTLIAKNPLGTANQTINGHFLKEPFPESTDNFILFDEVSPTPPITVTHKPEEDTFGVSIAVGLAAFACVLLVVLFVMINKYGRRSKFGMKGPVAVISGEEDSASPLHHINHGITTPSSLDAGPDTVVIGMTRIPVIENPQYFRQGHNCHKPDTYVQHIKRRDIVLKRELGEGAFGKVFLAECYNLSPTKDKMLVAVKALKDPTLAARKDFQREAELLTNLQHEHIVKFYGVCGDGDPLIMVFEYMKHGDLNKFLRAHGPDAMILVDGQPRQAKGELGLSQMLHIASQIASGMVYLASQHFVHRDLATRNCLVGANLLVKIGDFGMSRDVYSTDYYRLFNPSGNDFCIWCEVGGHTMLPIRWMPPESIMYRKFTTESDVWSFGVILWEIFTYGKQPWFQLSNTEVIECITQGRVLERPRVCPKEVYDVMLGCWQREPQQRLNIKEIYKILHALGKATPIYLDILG

[3] = target: High affinity nerve growth factor receptor (Homo sapiens, UniProt P04629, G667C); assay: Inhibition of TRKA G667C mutant (unknown origin) using […] peptide as substrate incubated for 1 hr in presence of ATP by FRET based Z'-lyte assay
High affinity nerve growth factor receptor (Homo sapiens, UniProt P04629, G667C), sequence (P04629 33-796 G667C limits assumed): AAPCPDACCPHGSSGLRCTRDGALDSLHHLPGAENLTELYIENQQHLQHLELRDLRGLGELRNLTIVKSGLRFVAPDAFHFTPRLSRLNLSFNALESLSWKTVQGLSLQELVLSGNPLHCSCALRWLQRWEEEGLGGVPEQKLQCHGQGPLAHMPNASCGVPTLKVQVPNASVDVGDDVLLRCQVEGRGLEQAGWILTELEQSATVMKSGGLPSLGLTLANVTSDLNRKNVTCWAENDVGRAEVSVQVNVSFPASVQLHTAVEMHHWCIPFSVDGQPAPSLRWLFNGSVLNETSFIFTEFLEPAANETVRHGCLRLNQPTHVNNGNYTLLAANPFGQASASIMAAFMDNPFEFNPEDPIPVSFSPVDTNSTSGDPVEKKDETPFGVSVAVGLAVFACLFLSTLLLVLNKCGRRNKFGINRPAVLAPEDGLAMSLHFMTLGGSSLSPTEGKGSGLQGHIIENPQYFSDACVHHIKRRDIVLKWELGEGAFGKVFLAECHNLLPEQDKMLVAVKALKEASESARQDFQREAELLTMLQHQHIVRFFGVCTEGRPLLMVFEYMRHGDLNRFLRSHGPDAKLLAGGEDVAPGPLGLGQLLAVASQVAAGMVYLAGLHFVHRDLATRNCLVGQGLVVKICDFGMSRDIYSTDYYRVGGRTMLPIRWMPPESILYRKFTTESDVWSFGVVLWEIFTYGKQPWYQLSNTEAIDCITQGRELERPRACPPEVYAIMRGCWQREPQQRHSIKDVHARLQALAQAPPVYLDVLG

[4] = target: High affinity nerve growth factor receptor (Homo sapiens, UniProt P04629); assay: Inhibition of TRKA (unknown origin) using […] peptide as substrate incubated for 1 hr in presence of ATP by FRET based Z'-lyte assay
High affinity nerve growth factor receptor (Homo sapiens, UniProt P04629), sequence (P04629 whole entry): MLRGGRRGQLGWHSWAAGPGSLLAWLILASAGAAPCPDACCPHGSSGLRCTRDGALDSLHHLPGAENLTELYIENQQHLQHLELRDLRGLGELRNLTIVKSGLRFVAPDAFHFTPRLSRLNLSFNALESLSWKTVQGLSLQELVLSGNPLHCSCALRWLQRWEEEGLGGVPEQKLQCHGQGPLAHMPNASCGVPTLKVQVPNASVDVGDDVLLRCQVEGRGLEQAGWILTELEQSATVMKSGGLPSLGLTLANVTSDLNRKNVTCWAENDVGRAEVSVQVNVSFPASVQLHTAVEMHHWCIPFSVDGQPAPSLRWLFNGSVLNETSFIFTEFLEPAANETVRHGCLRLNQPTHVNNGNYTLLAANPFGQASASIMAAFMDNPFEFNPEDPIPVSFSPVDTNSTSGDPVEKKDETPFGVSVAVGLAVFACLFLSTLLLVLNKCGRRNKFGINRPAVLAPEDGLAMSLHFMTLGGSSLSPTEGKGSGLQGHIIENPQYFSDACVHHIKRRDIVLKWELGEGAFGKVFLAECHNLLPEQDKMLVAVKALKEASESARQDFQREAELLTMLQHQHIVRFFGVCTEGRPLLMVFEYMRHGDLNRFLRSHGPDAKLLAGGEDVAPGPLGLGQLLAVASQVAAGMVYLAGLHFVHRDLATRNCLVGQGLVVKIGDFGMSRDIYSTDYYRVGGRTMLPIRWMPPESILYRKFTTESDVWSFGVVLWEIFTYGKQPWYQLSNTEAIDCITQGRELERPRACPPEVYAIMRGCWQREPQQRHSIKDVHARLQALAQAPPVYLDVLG

BaF3 [5] = assay: cells; conditions: Mus musculus, BaF3, 72 h
Description: Antiproliferative activity against mouse BaF3 cells harbouring ETV6-TRKB assessed as inhibition of cell growth incubated for 72 hrs by CCK8 assay

BaF3 [6] = assay: cells; conditions: Mus musculus, BaF3, 72 h; remark: listed apart in the source
BaF3 [7] = assay: cells; conditions: Mus musculus, BaF3, 72 h; remark: listed apart in the source
Description: Antiproliferative activity against mouse BaF3 cells harbouring CD74-TRKA assessed as inhibition of cell growth incubated for 72 hrs by CCK8 assay

BaF3 [8] = assay: cells; conditions: Mus musculus, BaF3, 72 h; remark: listed apart in the source
Description: Antiproliferative activity against mouse BaF3 cells harbouring ETV6-TRKC assessed as inhibition of cell growth incubated for 72 hrs by CCK8 assay

BaF3 [9] = assay: cells; conditions: Mus musculus, BaF3, 72 h; remark: listed apart in the source
Description: Antiproliferative activity against mouse BaF3 cells assessed as inhibition of cell growth incubated for 72 hrs by CCK8 assay

BaF3 [10] = assay: cells; conditions: Mus musculus, BaF3, 72 h; remark: listed apart in the source
Description: Antiproliferative activity against mouse BaF3 cells harbouring CD74-TRKA G595R mutant assessed as inhibition of cell growth incubated for 72 hrs by CCK8 assay

BaF3 [11] = assay: cells; conditions: Mus musculus, BaF3, 72 h; remark: listed apart in the source
Description: Antiproliferative activity against mouse BaF3 cells harbouring CD74-TRKA G623R mutant assessed as inhibition of cell growth incubated for 72 hrs by CCK8 assay

BaF3 [12] = assay: Induction of apoptosis in mouse BaF3 cells harboring CD74-TRKA G667C mutant assessed as viable cells at 2 nM incubated 48 hrs by Annexin V-FITC/7-AAD staining based flow cytometric analysis (reference value: 89.60%); type: functional; conditions: read-out: Activity
[13] = target: Proto-oncogene tyrosine-protein kinase receptor Ret (Homo sapiens, UniProt P07949); assay: Inhibition of RET (unknown origin)
Proto-oncogene tyrosine-protein kinase receptor Ret, sequence (P07949 whole entry): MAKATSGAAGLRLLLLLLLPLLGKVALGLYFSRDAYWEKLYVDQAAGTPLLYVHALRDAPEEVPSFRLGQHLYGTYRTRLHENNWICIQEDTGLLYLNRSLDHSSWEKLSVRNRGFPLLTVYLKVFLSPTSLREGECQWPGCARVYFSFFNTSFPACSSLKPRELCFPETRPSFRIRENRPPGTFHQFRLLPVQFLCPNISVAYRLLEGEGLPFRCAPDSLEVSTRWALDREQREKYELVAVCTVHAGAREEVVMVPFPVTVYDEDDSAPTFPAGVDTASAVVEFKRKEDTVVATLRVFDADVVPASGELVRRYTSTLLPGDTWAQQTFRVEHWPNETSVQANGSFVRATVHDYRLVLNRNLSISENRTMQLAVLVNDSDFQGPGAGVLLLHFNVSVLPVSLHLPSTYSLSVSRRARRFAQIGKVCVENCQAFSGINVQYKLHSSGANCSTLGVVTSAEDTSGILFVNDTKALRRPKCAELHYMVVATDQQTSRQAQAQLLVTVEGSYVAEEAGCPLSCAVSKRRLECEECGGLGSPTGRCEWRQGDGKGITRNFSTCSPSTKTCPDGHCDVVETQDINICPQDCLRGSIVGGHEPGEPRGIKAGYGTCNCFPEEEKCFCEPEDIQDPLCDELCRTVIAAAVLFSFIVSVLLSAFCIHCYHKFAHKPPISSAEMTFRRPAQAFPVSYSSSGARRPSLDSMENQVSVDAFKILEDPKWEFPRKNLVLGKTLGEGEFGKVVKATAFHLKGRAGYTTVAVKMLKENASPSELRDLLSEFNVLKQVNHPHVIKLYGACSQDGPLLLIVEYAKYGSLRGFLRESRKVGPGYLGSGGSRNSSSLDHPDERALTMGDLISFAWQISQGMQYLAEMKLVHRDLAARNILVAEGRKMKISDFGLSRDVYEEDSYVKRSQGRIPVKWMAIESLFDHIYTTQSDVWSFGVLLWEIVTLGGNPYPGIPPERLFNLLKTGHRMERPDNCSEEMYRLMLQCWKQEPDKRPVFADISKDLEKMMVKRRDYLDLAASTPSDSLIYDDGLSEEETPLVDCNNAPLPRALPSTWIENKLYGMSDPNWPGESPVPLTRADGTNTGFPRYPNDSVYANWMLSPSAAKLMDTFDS

BaF3 [14] = assay: Induction of apoptosis in mouse BaF3 cells harboring CD74-TRKA G667C mutant assessed as viable cells at 0.4 nM incubated 48 hrs by Annexin V-FITC/7-AAD staining based flow cytometric analysis (reference value: 89.60%); type: functional; conditions: read-out: Activity
BaF3 [15] = assay: Induction of apoptosis in mouse BaF3 cells harboring CD74-TRKA G667C mutant assessed as viable cells at 50 nM incubated 48 hrs by Annexin V-FITC/7-AAD staining based flow cytometric analysis (reference value: 89.60%); type: functional; conditions: read-out: Activity
[16] = target: T1, Receptor-type tyrosine-protein kinase FLT3 (Homo sapiens, UniProt P36888); assay: Inhibition of FLT3 (unknown origin)
T1 sequence (P36888 whole entry): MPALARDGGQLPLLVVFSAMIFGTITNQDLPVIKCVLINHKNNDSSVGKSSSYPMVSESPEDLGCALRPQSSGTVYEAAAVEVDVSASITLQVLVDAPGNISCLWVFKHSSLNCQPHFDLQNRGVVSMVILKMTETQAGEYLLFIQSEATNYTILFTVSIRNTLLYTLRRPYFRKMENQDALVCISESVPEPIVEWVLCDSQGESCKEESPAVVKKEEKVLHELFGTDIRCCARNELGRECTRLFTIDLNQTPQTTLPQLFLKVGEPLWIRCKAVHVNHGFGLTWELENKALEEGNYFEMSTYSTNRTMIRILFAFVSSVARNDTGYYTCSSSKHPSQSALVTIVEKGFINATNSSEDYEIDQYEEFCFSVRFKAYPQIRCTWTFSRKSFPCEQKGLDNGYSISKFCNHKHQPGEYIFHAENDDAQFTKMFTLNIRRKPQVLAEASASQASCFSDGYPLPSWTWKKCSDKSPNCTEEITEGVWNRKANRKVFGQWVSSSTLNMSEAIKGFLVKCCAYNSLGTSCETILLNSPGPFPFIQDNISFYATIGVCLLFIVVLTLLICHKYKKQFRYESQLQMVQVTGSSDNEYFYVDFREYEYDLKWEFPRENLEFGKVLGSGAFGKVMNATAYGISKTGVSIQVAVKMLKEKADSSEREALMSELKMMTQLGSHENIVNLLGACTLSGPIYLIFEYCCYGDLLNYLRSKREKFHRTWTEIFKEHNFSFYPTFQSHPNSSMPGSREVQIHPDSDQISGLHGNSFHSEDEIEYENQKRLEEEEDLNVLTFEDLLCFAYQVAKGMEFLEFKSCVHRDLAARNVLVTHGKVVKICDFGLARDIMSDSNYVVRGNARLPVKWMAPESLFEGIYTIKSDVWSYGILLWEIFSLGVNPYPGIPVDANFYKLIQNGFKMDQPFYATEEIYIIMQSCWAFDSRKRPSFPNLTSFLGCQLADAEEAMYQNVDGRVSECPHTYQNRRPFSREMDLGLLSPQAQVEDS

BaF3 [17] = assay: Induction of apoptosis in mouse BaF3 cells harboring CD74-TRKA G667C mutant assessed as viable cells at 10 nM incubated 48 hrs by Annexin V-FITC/7-AAD staining based flow cytometric analysis (reference value: 89.60%); type: functional; conditions: read-out: Activity
BaF3 [18] = assay: Induction of apoptosis in mouse BaF3 cells harboring CD74-TRKA assessed as viable cells at 100 nM incubated 48 hrs by Annexin V-FITC/7-AAD staining based flow cytometric analysis (reference value: 89.30%); type: functional; conditions: read-out: Activity
[19] = target: Vascular endothelial growth factor receptor 2 (Homo sapiens, UniProt P35968); assay: Inhibition of VEGFR2 (unknown origin)
BaF3 [20] = assay: Induction of apoptosis in mouse BaF3 cells harboring CD74-TRKA assessed as viable cells at 500 nM incubated 48 hrs by Annexin V-FITC/7-AAD staining based flow cytometric analysis (reference value: 89.30%); type: functional; conditions: read-out: Activity
BaF3 [21] = assay: Induction of apoptosis in mouse BaF3 cells harboring CD74-TRKA assessed as viable cells at 4 nM incubated 48 hrs by Annexin V-FITC/7-AAD staining based flow cytometric analysis (reference value: 89.30%); type: functional; conditions: read-out: Activity
BaF3 [22] = assay: Induction of apoptosis in mouse BaF3 cells harboring CD74-TRKA assessed as viable cells at 20 nM incubated 48 hrs by Annexin V-FITC/7-AAD staining based flow cytometric analysis (reference value: 89.30%); type: functional; conditions: read-out: Activity

BDNF/NT-3 growth factors receptor, sequence (Q16620 whole entry): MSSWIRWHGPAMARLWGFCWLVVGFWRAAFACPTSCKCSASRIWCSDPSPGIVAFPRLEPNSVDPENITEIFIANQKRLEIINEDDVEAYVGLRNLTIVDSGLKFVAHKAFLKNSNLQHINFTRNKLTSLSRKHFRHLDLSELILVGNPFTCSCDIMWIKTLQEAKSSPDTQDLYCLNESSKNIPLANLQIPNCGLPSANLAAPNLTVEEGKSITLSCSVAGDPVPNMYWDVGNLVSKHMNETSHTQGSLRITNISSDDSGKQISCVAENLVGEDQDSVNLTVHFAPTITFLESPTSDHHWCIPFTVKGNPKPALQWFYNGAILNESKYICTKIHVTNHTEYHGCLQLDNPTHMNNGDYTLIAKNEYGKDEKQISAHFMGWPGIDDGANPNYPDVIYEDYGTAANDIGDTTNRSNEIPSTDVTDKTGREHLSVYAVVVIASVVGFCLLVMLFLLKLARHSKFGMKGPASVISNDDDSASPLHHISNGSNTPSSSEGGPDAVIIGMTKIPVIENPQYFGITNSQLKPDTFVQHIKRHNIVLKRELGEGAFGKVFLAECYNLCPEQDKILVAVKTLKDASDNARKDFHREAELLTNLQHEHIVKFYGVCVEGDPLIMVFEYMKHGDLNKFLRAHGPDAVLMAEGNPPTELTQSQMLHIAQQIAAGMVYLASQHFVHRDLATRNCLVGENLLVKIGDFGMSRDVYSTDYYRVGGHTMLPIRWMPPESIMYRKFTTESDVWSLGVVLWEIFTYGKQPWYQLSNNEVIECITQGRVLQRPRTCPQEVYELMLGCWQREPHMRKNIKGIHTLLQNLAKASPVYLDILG

Structure (SMILES)	IC50 [1]	IC50 [2]	IC50 [3]	IC50 [4]	IC50 (BaF3 [5])	IC50 (BaF3 [6])	IC50 (BaF3 [7])	IC50 (BaF3 [8])	other results
CN1CCN(Cc2cc(NC(=O)[C@@H]3CCN(c4ccc5ncc(-c6ccccn6)n5n4)C3)cc(C(F)(F)F)c2)CC1	5.1 nM	8.1 nM	16.5 nM	5.8 nM	51.8 nM	9.3 nM	61.5 nM	26.4 nM	–
C[C@@H]1CCc2ncc(F)cc2[C@H]2CCCN2c2ccn3ncc(c3n2)C(=O)N1 [SELITRECTINIB]	–	–	–	–	5.2 nM	–	1.7 nM	1.2 nM	–
CN1CCN(Cc2ccc(NC(=O)[C@@H]3CCN(c4ccc5ncc(-c6cnn(C7CCOCC7)c6)n5n4)C3)cc2C(F)(F)F)CC1	26.8 nM	–	35.5 nM	13.2 nM	–	–	–	–	–
Cc1cn(-c2cc(NC(=O)[C@@H]3CCN(c4ccc5ncc(-c6ccccn6)n5n4)C3)cc(C(F)(F)F)c2)cn1	5.9 nM	10.1 nM	25.2 nM	13.1 nM	25.3 nM	1.8 nM	29.1 nM	15.8 nM	–
CN1CCN(Cc2cc(NC(=O)[C@H]3CCN(c4ccc5ncc(-c6ccccn6)n5n4)C3)cc(C(F)(F)F)c2)CC1	50.8 nM	40.2 nM	98.1 nM	35.2 nM	215 nM	49.3 nM	261 nM	141 nM	–
CN1CCN(Cc2ccc(NC(=O)[C@@H]3CCN(c4ccc5ncc(-c6ccccn6)n5n4)C3)cc2C(F)(F)F)CC1	–	4.3 nM	9.4 nM	3.3 nM	–	–	–	–	viability at 0.002 µM (BaF3 [12]): 89.8%; IC50 [13]: 9.9 nM; viability at 0.0004 µM (BaF3 [14]): 89.1%; viability at 0.05 µM (BaF3 [15]): 43%; IC50 [16]: 1.3 nM; viability at 0.01 µM (BaF3 [17]): 87.6%; viability at 0.1 µM (BaF3 [18]): 78.1%; IC50 [19]: 71.1 nM; viability at 0.5 µM (BaF3 [20]): 60.8%; viability at 0.004 µM (BaF3 [21]): 59.9%; viability at 0.02 µM (BaF3 [22]): 87.8%
CN1CCN(Cc2ccc(NC(=O)[C@@H]3CCN(c4ccc5ncc(-c6cnn(CCO)c6)n5n4)C3)cc2C(F)(F)F)CC1	21.6 nM	–	52.5 nM	8.7 nM	–	–	–	–	–
O=C(Nc1ccc(Cl)c(C(F)(F)F)c1)N[C@@H]1CCN(c2ccc3ncc(-c4ccccn4)n3n2)C1	81.6 nM	17 nM	15.1 nM	45.7 nM	508 nM	4.4 nM	695 nM	225 nM	–

Now from value to compound, other results behind:

IC50 [1]	IC50 [2]	IC50 [3]	IC50 [4]	IC50 (BaF3 [5])	IC50 (BaF3 [6])	IC50 (BaF3 [7])	IC50 (BaF3 [8])	Structure (SMILES)	other results
11.1 nM	8 nM	–	–	–	–	–	–	CN1CCN(Cc2ccc(NC(=O)[C@@H]3CCN(c4ccc5ncc(-c6cccnc6)n5n4)C3)cc2C(F)(F)F)CC1	–
> 1000 nM	–	938 nM	245 nM	–	–	–	–	CN1CCN(Cc2ccc(NC(=O)[C@@H]3CCN(c4ccc5nccn5n4)C3)cc2C(F)(F)F)CC1	–
13.8 nM	7.8 nM	33.8 nM	5.8 nM	522 nM	27.3 nM	296 nM	195 nM	CN1CCN(Cc2ccc(NC(=O)[C@@H]3CCN(c4ccc5ncc(-c6cn[nH]c6)n5n4)C3)cc2C(F)(F)F)CC1	–
–	–	–	–	29.7 nM	284 nM	9.3 nM	15.4 nM	O=C(Nc1cnn2ccc(N3CCC[C@@H]3c3cc(F)ccc3F)nc12)N1CC[C@H](O)C1 [LAROTRECTINIB]	IC50 (BaF3 [9]): > 2000 nM; IC50 (BaF3 [10]): > 1000 nM; IC50 (BaF3 [11]): > 1000 nM
9.6 nM	–	16.7 nM	6 nM	–	–	–	–	CN1CCN(Cc2ccc(NC(=O)[C@@H]3CCN(c4ccc5ncc(-c6ccc(N)nc6)n5n4)C3)cc2C(F)(F)F)CC1	–
–	36.8 nM	241 nM	68.7 nM	–	–	–	–	Cc1conc1NC(=O)N[C@@H]1CCN(c2ccc3ncc(-c4ccccn4)n3n2)C1	–
